Where two headings read alike, the source gives them in different places.
Assays:
[1] = tested on: U87MG cells; test: Inhibition of in vitro proliferation of U87MG cells (CTG); type: cell-based; conditions: Homo sapiens, U-87 MG, 144 h, read-out: IC50 (nM) U87
Protocol: (§1) This experiment was intended to test the inhibitory activity of the pharmaceutical compounds of the present disclosure against the in vitro proliferation of U87MG cells (glioma cells, Cell Bank, Chinese Academy of Sciences, Catalog #TCHu138) and SK-BR-3 tumor cells (human breast cancer cells, ATCC, Catalog #HTB-30). The cells were treated in vitro with a compound at different concentrations. After 6 days of culture, the proliferation of cells was tested using CTG (CellTiter-Glo® Luminescent Cell Viability Assay, Promega, Catalog #G7573) reagents, and the in vitro activity of the compound was evaluated according to the IC50 value.
(§2) The method of testing the inhibition of the in vitro proliferation of U87MG cells was described below as an example for the method of assaying for the inhibitory activity of the compounds of the present disclosure against the in vitro proliferation of tumor cells. The method is also applicable to, but not limited to, tests for inhibitory activity against the in vitro proliferation of other tumor cells.
(§3) 1. Cell culture: U87MG and SK-BR-3 cells were cultured in EMEM medium (GE, Catalog #SH30024.01) containing 10% FBS and McCoy's 5A medium (Gibco, Catalog #16600-108) containing 10% FBS, respectively.
(§4) 2. Preparation of cells. U87MG and SK-BR-3 cells growing at log phase were washed once with PBS (phosphate buffer, Shanghai BasalMedia Technologies Co., Ltd.) and then digested with 2-3 mL of trypsin (0.25% Trypsin-EDTA (1×), Gibico, Life Technologies) for 2-3 min. After the cells were completely digested, 10-15 mL of cell culture media were added to elute the digested cells. The mixtures were centrifuged at 1000 rpm for 5 min, and the supernatants were discarded. Then the cells were resuspended in 10-20 mL of cell culture media to give single-cell suspensions.
3. Cell plating. The U87MG and SK-BR-3 single-cell suspensions were each well mixed and adjusted with cell culture media to cell densities of 2.75×10^3 cells/mL and 8.25×10^3 cells/mL, respectively. The adjusted cell suspensions were each well mixed and added to 96-well cell culture plates at 180 μL/well. To each of the peripheral wells of the 96-well plates was added 200 μL of media only. The plate was incubated in an incubator for 24 h (37° C., 5% CO2).
4. Preparation of compounds. A compound was dissolved in DMSO (dimethyl sulfoxide, Shanghai Titan Scientific Co., Ltd.) to prepare a stock solution at an initial concentration of 10 mM.
Small molecule compounds were prepared at an initial concentration of 500 nM as follows.
Different test samples at concentration 100 μM (30 μL) were added to the first column of a 96-well U-bottom plate, and 20 μL of DMSO was added to each well of the second column through the eleventh column. The samples in the first column (10 μL) were added to the 20 μL of DMSO in the second column, and the mixtures were well mixed. The mixtures (10 μL) were added to the third column, and so on to the tenth column. The drugs in the plate (5 μL per well) were transferred to EMEM media (95 μL), and the mixtures were well mixed for later use.
5. Sample addition. The test samples prepared at different concentrations (20 μL) were added to a culture plate, with two duplicate wells set for each sample. […]
(§5) 7. Plate reading. The 96-well cell culture plate was taken out and tested in a microplate reader (BMG labtech, PHERAstar FS) for chemiluminescence.
(§6) Data were processed and analyzed using Microsoft Excel and Graphpad Prism 5.

[2] = tested on: SK-BR-3 tumor cells; test: Inhibition of in vitro proliferation of SK-BR-3 tumor cells (CTG); type: cell-based; conditions: Homo sapiens, SK-BR-3, 144 h, read-out: IC50 (nM) SK-BR-3
Protocol: as §1, §2, §3, §4
3. Cell plating. […]
as §5, §6

[3] = in vitro proliferation, 6 days, CTG

`CC[C@@]1(O)C(=O)OCc2c1cc1n(c2=O)Cc2c-1nc1cc(F)c(C)c3c1c2[C@@H](NC(=O)[C@H](O)C1CC1)CC3` [(R)-2-cyclopropyl-N-((1S,9S)-9-ethyl-5-fluoro-9-hydroxy-4-methyl-10,13-dioxo-2,3,9,10,13,15-hexahydro-1H,12H-benzo[de]pyrano[3′,4′:6,7]indolizino[1,2-b]quinolin-1-yl)-2-hydroxyacetamide] gave an IC50 [1, 3] of 0.86 nM and an IC50 [2, 3] of 0.33 nM.

Work on `CC[C@@]1(O)C(=O)OCc2c1cc1n(c2=O)Cc2c-1nc1cc(F)c(C)c3c1c2[C@@H](NC(=O)C1(O)CC1)CC3` [Example 1, N-((1S,9S)-9-ethyl-5-fluoro-9-hydroxy-4-methyl-10,13-dioxo-2,3,9,10,13,15-hexahydro-1H,12H-benzo[de]pyrano[3′,4′:6,7]indolizino[1,2-b]quinolin-1-yl)-1-hydroxycyclopropane-1-carboxamide] yielded an IC50 [1] of 0.23 nM and an IC50 [2] of 0.12 nM.

`CC[C@@]1(O)C(=O)OCc2c1cc1n(c2=O)Cc2c-1nc1cc(F)c(C)c3c1c2[C@@H](NC(=O)C1(O)CCCC1)CC3` [Example 4, N-((1S,9S)-9-ethyl-5-fluoro-9-hydroxy-4-methyl-10,13-dioxo-2,3,9,10,13,15-hexahydro-1H,12H-benzo[de]pyrano[3′,4′:6,7]indolizino[1,2-b]quinolin-1-yl)-1-hydroxycyclopentane-1-carboxamide] showed an IC50 [2] of 1.9 nM.

In the case of `CC[C@@]1(O)C(=O)OCc2c1cc1n(c2=O)Cc2c-1nc1cc(F)c(C)c3c1c2[C@@H](NC(=O)C1(CO)CC1)CC3` [Example 5, N-((1S,9S)-9-ethyl-5-fluoro-9-hydroxy-4-methyl-10,13-dioxo-2,3,9,10,13,15-hexahydro-1H,12H-benzo[de]pyrano[3′,4′:6,7]indolizino[1,2-b]quinolin-1-yl)-1-(hydroxymethyl)cyclopropane-1-carboxamide], the IC50 [1] is reported as 4.81 nM.

In the case of `CC[C@@]1(O)C(=O)OCc2c1cc1n(c2=O)Cc2c-1nc1cc(F)c(C)c3c1c2[C@@H](NC(=O)C1(CO)CCC1)CC3` [Example 6, N-((1S,9S)-9-ethyl-5-fluoro-9-hydroxy-4-methyl-10,13-dioxo-2,3,9,10,13,15-hexahydro-1H,12H-benzo[de]pyrano[3′,4′:6,7]indolizino[1,2-b]quinolin-1-yl)-1-(hydroxymethyl)cyclobutane-1-carboxamide], the IC50 [1, 3] is reported as 1.83 nM.

`CC[C@@]1(O)C(=O)OCc2c1cc1n(c2=O)Cc2c-1nc1cc(F)c(C)c3c1c2[C@@H](NC(=O)C1(O)CCC1)CC3` [Example 7, N-((1S,9S)-9-ethyl-5-fluoro-9-hydroxy-4-methyl-10,13-dioxo-2,3,9,10,13,15-hexahydro-1H,12H-benzo[de]pyrano[3′,4′:6,7]indolizino[1,2-b]quinolin-1-yl)-1-hydroxycyclobutane-1-carboxamide] showed an IC50 [1, 3] of 1.95 nM.

From US20230054458A1, “ANTI-CLAUDIN ANTIBODY-DRUG CONJUGATE AND PHARMACEUTICAL USE THEREOF” (JIANGSU HENGRUI MEDICINE CO., LTD., priority 2019, published 2023)
